Experimental findings from patent US9688966B2, “Compositions comprising cellobiose dehydrogenase from Pycnoporus cinnabarinus and their use for the degradation of lignocellulosic biomass” (INSTITUT NATIONAL DE LA RECHERCHE AGRONOMIQUE, priority 2011, dated 2017) are described below.

The target of this experiment is Pycnoporus cinnabarinus ss3 cellobiose dehydrogenase, recombinant (rCDH, C-terminal (His)6 tag, expressed in Pichia pastoris; GenBank HQ825322) (Trametes cinnabarina, UniProt F1DFN2). In words: Kinetic parameters of purified rCDH for electron acceptors (cellobiose oxidation, 30° C., pH 4.5). It counts as biochemical. As to the method:
To measure enzyme activities in the P. cinnabarinus culture supernatant, each aliquot was centrifuged for 5 min at 3500 rpm and filtered through a 0.45 μm membrane (MILLIPORE, Bedford, Mass., USA). CDH activities were determined by monitoring the reduction of 0.2 mM 2,6-dichlorophenol indophenol (DCPIP) in 100 mM sodium acetate buffer (pH 5) containing 2 mM cellobiose and 4 mM of sodium fluoride (sodium fluoride was used as a laccase inhibitor). The decrease in absorption at 520 nm (ε=6800 M^−1·cm^−1) was monitored at 30° C. for 1 min. Alternatively, CDH activity was determined by monitoring the reduction of 50 μM cytochrome c (cyt c) in 100 mM sodium-acetate buffer (pH 5) containing 2 mM cellobiose. The decrease in absorption at 550 nm (ε=33,700 M^−1·cm^−1) was monitored at 30° C. for 1 min. Glucose oxidase was measured by using the D-gluconic acid/D-glucono-δ-lactone assay (MEGAZYME). Laccase activity was determined quantitatively by monitoring the oxidation of 5 mM ABTS (2,2′-azino-bis(3-ethylbenzthiazoline-6-sulfonic acid)) at 420 nm (extinction coefficient […] cm.^−1) in the presence of 50 mM NaK tartrate, pH 4.0. Lignin peroxidase activity was determined spectrophotometrically at 30° C. by the method of Tien and Kirk (1988, Methods Enzymol., vol. 161, pp: 238-249). Manganese peroxidase activity was determined spectrophotometrically at 30° C. by the method of Paszczynski et al. (1985, FEMS Microbiol. Lett. 29:37-41) using H2O2 and vanillylacetone as substrate. Enzyme activity was expressed in international units (IU). One unit of activity is defined as the quantity of enzyme that transforms 1 μmol of substrate in one minute.
The kinetic parameters (Vmax and Km) were determined for cellobiose oxidation measured at 30° C. in 50 mM citrate phosphate buffer pH 4.5 using DCPIP or cytochrome c. The concentration of cellobiose ranged from 10 to 700 μM with both electron acceptors (DCPIP and cytochrome c). Triplicates were run to ensure reliable kinetic parameter determination.
Graphpad prism v.4 (Graphpad Software) was used for the nonlinear regression calculation and kinetic parameter determination.

Where [1] appears, read: electron acceptor DCPIP, cellobiose as electron donor, 30° C., pH 4.5, apparent.

Molecules are shown by their SMILES.

Chain of Pycnoporus cinnabarinus ss3 cellobiose dehydrogenase, recombinant (rCDH, C-terminal (His)6 tag, expressed in Pichia pastoris; GenBank HQ825322) (F1DFN2 1-750): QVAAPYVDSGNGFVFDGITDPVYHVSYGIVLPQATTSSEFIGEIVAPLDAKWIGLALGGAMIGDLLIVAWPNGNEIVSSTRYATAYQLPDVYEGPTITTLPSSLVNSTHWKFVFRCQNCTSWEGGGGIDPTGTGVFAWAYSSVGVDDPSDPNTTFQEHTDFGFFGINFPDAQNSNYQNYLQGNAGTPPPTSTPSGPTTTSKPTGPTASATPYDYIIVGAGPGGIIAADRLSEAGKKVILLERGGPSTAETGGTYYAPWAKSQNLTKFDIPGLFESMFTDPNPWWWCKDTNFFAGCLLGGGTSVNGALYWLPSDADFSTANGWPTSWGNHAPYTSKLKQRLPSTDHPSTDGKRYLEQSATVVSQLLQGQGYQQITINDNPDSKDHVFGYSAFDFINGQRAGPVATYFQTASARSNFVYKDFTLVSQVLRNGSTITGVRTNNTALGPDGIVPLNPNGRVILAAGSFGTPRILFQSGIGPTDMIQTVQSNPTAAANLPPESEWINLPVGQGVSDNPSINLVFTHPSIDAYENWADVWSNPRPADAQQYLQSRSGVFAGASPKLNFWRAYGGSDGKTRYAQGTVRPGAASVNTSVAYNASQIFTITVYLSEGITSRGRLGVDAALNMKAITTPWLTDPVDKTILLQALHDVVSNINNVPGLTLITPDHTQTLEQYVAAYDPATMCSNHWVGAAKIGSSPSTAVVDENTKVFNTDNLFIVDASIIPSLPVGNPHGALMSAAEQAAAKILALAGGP

For `O=C1C(Cl)=CC(=Nc2ccc(O)cc2)C=C1Cl` [DCPIP, 2,6-dichlorophenol indophenol], under “DCPIP, on cellobiose oxidation”, the Vmax was 22.2 U·mg^−1. For the same molecule, under setting [1], the Vmax was 22.2 µmol/min/mg, the kcat was 40.8 s⁻¹ and the kcat/KM is 1.148e+06 M⁻¹ s⁻¹.

What is called kcat is the number of substrate molecules converted per active site and unit of time at saturation. Broadly, the kcat/KM is the turnover number divided by the Michaelis constant.
